Data taken from PubChem BioAssay AID2060886 (Molecular Pharmacology Branch, DTP, NCI, 2025).
pIC50: −log10 of the molar value. Several values for one entry are separate records, joined by “and”; a condition that tells them apart may be missing. Identical values can stand only once.

Tested on: 653999-131-R-J2-PDC complex spheroids, growth inhibition
Experiment: Anticancer human tumor 653999-131-R-J2-PDC patient-derived lung adenocarcinoma cell line growth inhibition [RAS]
Details: for viability, T/C: stronger effect = lower value
Description: RAS pathway inhibitors in Combinations in Complex Spheroids
A high-throughput screen of multi-cell type tumor spheroids was designed to identify active combinations of RAS pathway inhibitors and targeted small molecules. Complex spheroids include a stromal component modeled by human endothelial cells (HUVEC) and fibroblasts modeled by human mesenchymal stem cells (MSCs). The concentration ranges selected for each drug and investigational agent were based upon clinically achievable concentrations if the clinical Cmax of the agent was known.
Compounds. The drugs and investigational agents: abemaciclib (NSC768073), cobimetinib (NSC768068), divarasib (GDC6063, NSC841802), docetaxel (NSC628503), GDC-1971 (RLY-1971, NSC841576), gemcitabine (NSC613327), inavolisib (NSC800729), ipatasertib (NSC767898), KB-0742 (NSC834161), MRTX-1133 (NSC836407), osimertinib (NSC779217), RMC-4630 (NSC839698), RMC-6236 (NSC851965), RMC-6291 (NSC852671), Ro-3306 (NSC812927), sapanisertib (NSC764658), SN-38 (NSC673596), staurosporine (NSC755774), SY5609 (NSC837396), and tovorafenib (DAY101, NSC766906), were obtained from the National Cancer Institute (NCI) Developmental Therapeutics Program Chemical Repository. The FDA-approved anticancer drug set is available from the NCI Developmental Therapeutics Program. […] The stock solutions were prepared in dimethyl sulfoxide (DMSO, Sigma-Aldrich, St. Louis, MO, cat. D2650) at 800-fold the tested concentration and stored at -70 degrees C prior to their use. All drugs and investigational agents were tested over a range starting from a high concentration at or near the clinical Cmax and decreasing in half-log increments. If the clinical Cmax for an agent had not been determined, the highest concentration tested was 10 microM.
Cell Culture. All cells were maintained in an incubator at 37 degrees C and 5% CO2 with 95% humidity. The PDC lines were cultured according to standard operating procedures established by the NCI PDMR. All PDCs were thawed and cultured in Matrigel-coated flasks prepared with a working solution of 1X Ham's F-12 nutrient mix, without supplementation (Invitrogen, Waltham, MA, cat. 11765054), 100 U/mL penicillin-streptomycin (Invitrogen, cat. 15140122), and 2.5% Matrigel (Corning Inc., Corning, NY, cat. 354248) for the first three passages. The 362531-283-R-J2-PDC and 782815-120-R-J1-PDC lines were cultured in 6C/Colon 1B media, which includes advanced DMEM/F-12 (Thermo Fisher Scientific, cat. 12634028), 10 mM HEPES (Thermo Fisher Scientific, cat. 15630080), 1X GlutaMAX supplement (Thermo Fisher Scientific, cat. 35050061), 0.1 mg/mL primocin (InvivoGen, San Diego, CA, cat. ant-pm-2), 10% defined fetal bovine serum, heat inactivated (HyClone Laboratories Inc., Logan, UT, cat. SH30070.03HI), 50% L-WRN conditioned media (ATCC, cat. CRL-3276), 1.25 mM N-Acetyl-L-cysteine (Sigma-Aldrich, cat. A9165), 10 mM nicotinamide (Sigma-Aldrich, cat. N0636), 1X B-27 supplement (Thermo Fisher Scientific, cat. 17504044), 1X N-2 supplement (Thermo Fisher Scientific, cat. 17502048), 50 ng/mL human EGF (Thermo Fisher Scientific, cat. PHG0311), and 10 microM Y-27632 dihydrochloride (Tocris Bioscience, cat. 1254). The K12877-001-R-J1-PDC line was cultured in 6I media, which includes all 6C/Colon 1B media plus 10 ng/mL human FGF-10 (PeproTech, cat. 100-26), 1 ng/mL human FGF-2 (PeproTech, cat. 100-18B), 1 µM prostaglandin E2 (Tocris Bioscience, cat. 2296), […] hydrocortisone (Sigma-Aldrich, cat. H4001), and […] bovine insulin (Sigma-Aldrich, cat. I6634). The K86415-001-R-J1-PDC line was cultured in 6D media, which includes all 6C/Colon 1B media components minus the L-WRN conditioned media. The 485176-168-R4-J1-PDC was cultured in PANC media, which includes all 6C/Colon 1B media plus 100 ng/mL human FGF-10 (PeproTech, cat. 100-26), 500 nM SB-431542 (Selleckchem, cat. S1067), and 10 nM gastrin (Tocris Bioscience, cat. 3006). […]

[1] = curve of first compound, second compound 0.0316 µM
[2] = curve of first compound, second compound 0.1 µM
[3] = curve of first compound, second compound 0.316 µM
[4] = curve of first compound, second compound 1 µM
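Note: spheroids exposed to the agents for seven days before the readout.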

## CCc1c2c(nc3ccc(O)cc13)-c1cc3c(c(=O)n1C2)COC(=O)[C@]3(O)CC + C=CC(=O)N1CCN(c2nc(OCC3CCCN3C)nc3c(F)c(-c4nc(N)cc(C)c4C(F)(F)F)c(Cl)cc23)C(C)C1
Curve of first compound, second compound 0.00316 µM
  pIC50: 8.07
Curve of first compound, second compound 0.01 µM
  pIC50: 8.19
[1]
  pIC50: 8.19
[2]
  pIC50: 8.23
[3]
  pIC50: 8.23
[4]
  pIC50: 8.07
Second compound 0.00316 µM, first compound 0.000949 µM
  viability, T/C: 80.2%
Second compound 0.00316 µM, first compound 0.003 µM
  viability, T/C: 58.5%
Second compound 0.00316 µM, first compound 0.00949 µM
  viability, T/C: 53.5%
Second compound 0.00316 µM, first compound 0.03 µM
  viability, T/C: 34.3%
Second compound 0.00316 µM, first compound 0.0949 µM
  viability, T/C: 20.8%
Second compound 0.00316 µM, first compound 0.3 µM
  viability, T/C: 10.2%
Second compound 0.01 µM, first compound 0.000949 µM
  viability, T/C: 88.7%
Second compound 0.01 µM, first compound 0.003 µM
  viability, T/C: 61.9%
Second compound 0.01 µM, first compound 0.00949 µM
  viability, T/C: 44.2%
Second compound 0.01 µM, first compound 0.03 µM
  viability, T/C: 29%
Second compound 0.01 µM, first compound 0.0949 µM
  viability, T/C: 21.5%
Second compound 0.01 µM, first compound 0.3 µM
  viability, T/C: 11.3%
Second compound 0.0316 µM, first compound 0.000949 µM
  viability, T/C: 90.9%
Second compound 0.0316 µM, first compound 0.003 µM
  viability, T/C: 60.8%
Second compound 0.0316 µM, first compound 0.00949 µM
  viability, T/C: 43.8%
Second compound 0.0316 µM, first compound 0.03 µM
  viability, T/C: 30.4%
Second compound 0.0316 µM, first compound 0.0949 µM
  viability, T/C: 20.6%
Second compound 0.0316 µM, first compound 0.3 µM
  viability, T/C: 11.6%
Second compound 0.1 µM, first compound 0.000949 µM
  viability, T/C: 85.8%
Second compound 0.1 µM, first compound 0.003 µM
  viability, T/C: 58.3%
Second compound 0.1 µM, first compound 0.00949 µM
  viability, T/C: 43.1%
Second compound 0.1 µM, first compound 0.03 µM
  viability, T/C: 30.2%
Second compound 0.1 µM, first compound 0.0949 µM
  viability, T/C: 23.7%
Second compound 0.1 µM, first compound 0.3 µM
  viability, T/C: 12.1%
Second compound 0.316 µM, first compound 0.000949 µM
  viability, T/C: 83.9%
Second compound 0.316 µM, first compound 0.003 µM
  viability, T/C: 59.7%
Second compound 0.316 µM, first compound 0.00949 µM
  viability, T/C: 42.5%
Second compound 0.316 µM, first compound 0.03 µM
  viability, T/C: 29.5%
Second compound 0.316 µM, first compound 0.0949 µM
  viability, T/C: 23%
Second compound 0.316 µM, first compound 0.3 µM
  viability, T/C: 11.9%
Second compound 1 µM, first compound 0.000949 µM
  viability, T/C: 84.5%
Second compound 1 µM, first compound 0.003 µM
  viability, T/C: 64.2%
Second compound 1 µM, first compound 0.00949 µM
  viability, T/C: 50.7%
Second compound 1 µM, first compound 0.03 µM
  viability, T/C: 31.2%
Second compound 1 µM, first compound 0.0949 µM
  viability, T/C: 25.3%
Second compound 1 µM, first compound 0.3 µM
  viability, T/C: 14.5%

## CCN1CCN(Cc2ccc(Nc3ncc(F)c(-c4cc(F)c5nc(C)n(C(C)C)c5c4)n3)nc2)CC1 + C#Cc1c(F)ccc2cc(O)cc(-c3ncc4c(N5CC6CCC(C5)N6)nc(OCC56CCCN5CC(F)C6)nc4c3F)c12
[1]
  pIC50: < 6.00
[2]
  pIC50: < 6.00
[3]
  pIC50: 7.55
[4]
  pIC50: > 8.50
Curve of first compound, second compound 3.16 µM
  pIC50: > 8.50
Curve of first compound, second compound 10 µM
  pIC50: > 8.50
Second compound 0.0316 µM, first compound 0.00316 µM
  viability, T/C: 74.8%
Second compound 0.0316 µM, first compound 0.01 µM
  viability, T/C: 88.1%
Second compound 0.0316 µM, first compound 0.0316 µM
  viability, T/C: 65.6%
Second compound 0.0316 µM, first compound 0.1 µM
  viability, T/C: 57.4%
Second compound 0.0316 µM, first compound 0.316 µM
  viability, T/C: 62%
Second compound 0.0316 µM, first compound 1 µM
  viability, T/C: 63.2%
Second compound 0.1 µM, first compound 0.00316 µM
  viability, T/C: 70.5%
Second compound 0.1 µM, first compound 0.01 µM
  viability, T/C: 71.8%
Second compound 0.1 µM, first compound 0.0316 µM
  viability, T/C: 57.2%
Second compound 0.1 µM, first compound 0.1 µM
  viability, T/C: 52.1%
Second compound 0.1 µM, first compound 0.316 µM
  viability, T/C: 54.8%
Second compound 0.1 µM, first compound 1 µM
  viability, T/C: 61%
Second compound 0.316 µM, first compound 0.00316 µM
  viability, T/C: 64.7%
Second compound 0.316 µM, first compound 0.01 µM
  viability, T/C: 62.8%
Second compound 0.316 µM, first compound 0.0316 µM
  viability, T/C: 43.8%
Second compound 0.316 µM, first compound 0.1 µM
  viability, T/C: 49.3%
Second compound 0.316 µM, first compound 0.316 µM
  viability, T/C: 50.8%
Second compound 0.316 µM, first compound 1 µM
  viability, T/C: 50.5%
Second compound 1 µM, first compound 0.00316 µM
  viability, T/C: 37.7%
Second compound 1 µM, first compound 0.01 µM
  viability, T/C: 43.6%
Second compound 1 µM, first compound 0.0316 µM
  viability, T/C: 39.9%
Second compound 1 µM, first compound 0.1 µM
  viability, T/C: 30.9%
Second compound 1 µM, first compound 0.316 µM
  viability, T/C: 29.9%
Second compound 1 µM, first compound 1 µM
  viability, T/C: 41.7%
Second compound 3.16 µM, first compound 0.00316 µM
  viability, T/C: 35.3%
Second compound 3.16 µM, first compound 0.01 µM
  viability, T/C: 31.7%
Second compound 3.16 µM, first compound 0.0316 µM
  viability, T/C: 34.4%
Second compound 3.16 µM, first compound 0.1 µM
  viability, T/C: 26.6%
Second compound 3.16 µM, first compound 0.316 µM
  viability, T/C: 33.3%
Second compound 3.16 µM, first compound 1 µM
  viability, T/C: 33.3%
Second compound 10 µM, first compound 0.00316 µM
  viability, T/C: 18.4%
Second compound 10 µM, first compound 0.01 µM
  viability, T/C: 17.3%
Second compound 10 µM, first compound 0.0316 µM
  viability, T/C: 22.3%
Second compound 10 µM, first compound 0.1 µM
  viability, T/C: 19.4%
Second compound 10 µM, first compound 0.316 µM
  viability, T/C: 20.2%
Second compound 10 µM, first compound 1 µM
  viability, T/C: 26.9%

## C=CC(=O)Nc1cc(Nc2nccc(-c3cn(C)c4ccccc34)n2)c(OC)cc1N(C)CCN(C)C
Compound 0.00316 µM
  viability, T/C: 98% [middle of 4 runs]
Compound 0.01 µM
  viability, T/C: 89.8% [middle of 4 runs]
Compound 0.0316 µM
  viability, T/C: 94.7% [middle of 4 runs]
Compound 1 µM
  viability, T/C: 62.9% [middle of 4 runs]
Curve of compound
  pIC50: < 6.00 and 6.54
